Measured values reported in PMC9370530, “Modified Benzoxazole-Based VEGFR-2 Inhibitors and Apoptosis Inducers: Design, Synthesis, and Anti-Proliferative Evaluation” (Molecules, 2022).

Columns and labels:
[1] = tested on: colorectal carcinoma (HCT116); test: In vitro anti-proliferative MTT assay, HCT116; details: Homo sapiens, HCT-116, 24 h, read-out: IC50 HCT116
Procedure: (§6) This test was carried out on three different human cancer cell lines: MCF-7, HCT116, and HepG2 using the MTT method [66].
(§7) This test was carried out on three different human cancer cell lines: MCF-7, HCT116, and HepG2, We performed this colorimetric experiment with quantitative assessment of anticancer activity in accordance with the MTT method [1] The assay is based primarily on a biochemical reaction in which mitochondrial succinate dehydrogenase transforms yellow tetrazolium bromide (MTT) to a purple formazan derivative in live cells.
(§8) with 10% foetal bovine serum in general. In a 5 percent CO2 incubator at 37 °C, penicillin (100 units/mL) and streptomycin (100g/mL) were introduced. The cells were seeded at a density of 1.0x10^4 cells/well in a 96-well plate at 37 C for 48 hours under 5% CO2. […] The cells were given varying concentrations of the novel compounds and cultured for 24 hours. Then we add 20 l of MTT in a 5 mg/ml solution and let it sit for 4 hours.
(§9) 100 µl of DMSO was applied to each well to dissolve the purple formazan produced.
(§10) curve for each conc. using Graphpad Prism software (San Diego, CA. USA). The data presented are the mean of at least three separate experiments.
(§11) The IC50 of the selected derivatives were determined against VEGFR-2 kinase with enzyme linked immunosorbent assay (ELISA). We used a human VEGFR-2 ELISA kit. VEGFR-2 specific antibody was seeded on a 96 well microplate and 100 μL of solution of the standard or the tested compound was added. After incubation for 2.5 h. at room temperature and washing, 100 μL of prepared biotin antibody was added. Incubation of the plates for 1 h at room temperature and then washing were carried out before addition of streptavidin solution (100 μL). The mixture was incubated for 1h at room temperature and then washed. After that, 100 μL of tetramethybenzidine (TMB) substrate solution was added before incubation for half an hour at room temperature.
(§12) Finally, 50 μL of the stop solution was added immediately before the reading at 450 nm.
(§13) Percent inhibition was calculated by the comparison of compounds treated to control

breast cancer (MCF-7) = test: In vitro anti-proliferative MTT assay, MCF-7; details: Homo sapiens, MCF7, 24 h, read-out: IC50 MCF-7
Procedure: as §6, §7, §8, §9, §10, §11, §12, §13

[2] = tested on: hepatocellular carcinoma (HepG2); test: In vitro anti-proliferative MTT assay, HepG2; details: Homo sapiens, HepG2, 24 h, read-out: IC50 HepG2
Procedure: as §6, §7, §8, §9, §10, §11, §12, §13

VEGFR-2 kinase = target: T1, VEGFR-2 kinase (Homo sapiens, UniProt P35968); test: In vitro VEGFR-2 kinase inhibitory assay (ELISA kit); assay type: biochemical; details: human VEGFR-2 ELISA kit; median of three experiments
T1 construct: purchased
T1 sequence (P35968 20-1356): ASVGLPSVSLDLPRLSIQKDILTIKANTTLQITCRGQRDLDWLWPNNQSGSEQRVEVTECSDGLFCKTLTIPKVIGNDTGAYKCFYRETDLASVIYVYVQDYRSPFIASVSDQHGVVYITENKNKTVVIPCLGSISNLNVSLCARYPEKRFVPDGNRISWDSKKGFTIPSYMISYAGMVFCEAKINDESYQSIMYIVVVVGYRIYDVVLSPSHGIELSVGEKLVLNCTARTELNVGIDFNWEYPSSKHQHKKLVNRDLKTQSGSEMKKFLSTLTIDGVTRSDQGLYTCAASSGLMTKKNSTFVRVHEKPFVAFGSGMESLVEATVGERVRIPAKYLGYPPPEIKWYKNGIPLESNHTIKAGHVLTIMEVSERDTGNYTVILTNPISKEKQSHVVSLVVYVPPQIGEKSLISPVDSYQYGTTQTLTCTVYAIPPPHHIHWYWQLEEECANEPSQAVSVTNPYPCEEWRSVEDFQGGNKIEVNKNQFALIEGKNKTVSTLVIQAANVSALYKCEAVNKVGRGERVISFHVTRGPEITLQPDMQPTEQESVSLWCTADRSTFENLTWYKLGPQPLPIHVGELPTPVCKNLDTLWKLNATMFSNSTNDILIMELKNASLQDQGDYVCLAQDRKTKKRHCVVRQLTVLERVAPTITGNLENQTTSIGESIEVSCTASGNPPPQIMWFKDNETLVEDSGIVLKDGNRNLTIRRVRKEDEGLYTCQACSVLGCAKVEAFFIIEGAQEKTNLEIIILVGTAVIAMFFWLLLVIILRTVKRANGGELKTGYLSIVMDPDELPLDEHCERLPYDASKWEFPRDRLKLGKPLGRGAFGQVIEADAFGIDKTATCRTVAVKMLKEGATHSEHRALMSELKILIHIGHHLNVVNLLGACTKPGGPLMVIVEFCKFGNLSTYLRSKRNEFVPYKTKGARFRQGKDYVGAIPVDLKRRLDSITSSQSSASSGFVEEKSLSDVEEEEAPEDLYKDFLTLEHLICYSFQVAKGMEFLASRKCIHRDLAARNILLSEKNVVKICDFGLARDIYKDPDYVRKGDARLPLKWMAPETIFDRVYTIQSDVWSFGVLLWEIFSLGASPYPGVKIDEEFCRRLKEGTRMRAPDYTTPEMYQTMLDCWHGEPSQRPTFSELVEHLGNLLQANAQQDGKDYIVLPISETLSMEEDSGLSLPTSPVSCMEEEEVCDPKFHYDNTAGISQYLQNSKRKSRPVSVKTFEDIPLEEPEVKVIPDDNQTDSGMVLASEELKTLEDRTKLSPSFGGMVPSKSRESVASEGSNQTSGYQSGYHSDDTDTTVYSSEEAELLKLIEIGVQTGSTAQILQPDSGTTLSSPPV

TNF-α = TNF-α level in HepG2 cells by qRT-PCR; assay type: cell-based; details: Homo sapiens, 2.43 µM for 24 h
Procedure: (§1) The inhibition of these mediators caused apoptosis of tumor cells. Therefore, further investigation was conducted to see how compound 8 affect these cytokines (TNF-α and IL-6). Compound 8d was added to HepG2 cells at a concentration of 2.43 µM for 24 h, then the levels of TNF-α and IL-6 were measured using the qRT-PCR method.
(§2) The effects of 8d on TNF-α and IL-6 were determined using the qRT-PCR technique. The Supplementary data provides further detailed information about the study. […]
(§3) HepG2 cells were cultured according to the methodology described by Wang et al. The cells were planted and cultured for 24 h in six-well plates. Each well had 2 × 10^5 cells in it. Then 10% fetal bovine serum (FBS) was added, and the cells were incubated at 37 °C with 5% CO2.
(§4) The medium was then changed. DMSO (1% v/v) containing 2.43 μM of compound 8d was substituted. Following that, the cells were rinsed in cold phosphate buffered saline. […]
(§5) 1.5. Quantitative Real Time Reverse-Transcriptase PCR (qRT-PCR) technique The effects of compound 8d on the expression of TNF-α and IL-6 were determined using qRT-PCR technique. The quantity of immunomodulatory proteins (TNF-α and IL-6) in control and compound 8d (at the IC50 concentration)-treated HepG2 cells was assessed by qRT-PCR (reference). […]

IL-6 = IL-6 level in HepG2 cells by qRT-PCR; assay type: cell-based; details: Homo sapiens, 2.43 µM for 24 h
Procedure: as §1, §2, §3, §4, §5

HepG2 cells = test: HepG2 cell cycle analysis (PI flow cytometry); assay type: cell-based, human; details: 2.43 μM of compound
Procedure: The most promising candidate, compound 8d, was further evaluated by analyzing its effect on cycle phases of the HepG2 cells. From the results presented in Table 3, it can be noticed that a large percentage (70.23%) of cells treated with 8d was accumulated at the pre-G1 phase compared to the 2.70% reported for control cells. This clearly indicates the ability of compound 8d to inhibit HepG2 cell proliferation efficiently at the pre-G1 phase (Figure 5).
HepG2 Cell Cycle Analysis was performed for compound 8d according to the methodology reported by Wang et al.. The Supplementary data provides further detailed information about the study. […]
as §3
The medium was then changed. DMSO (1% v/v) containing 2.43 μM of compound 8d was substituted. Following that, the cells were rinsed in cold phosphate buffered saline. (PBS), then fixed in 70% ethyl alcohol, washed in PBS, and […]. After that, the DNA fluorochrome propidium iodide (PI) was maintained at […] for 1 5 minutes at 37 °C. A FACS Caliber flow cytometer was used to analyze the samples. […]

| Compound | IC50 [1] | IC50 (breast cancer (MCF-7)) | IC50 [2] | IC50 (VEGFR-2 kinase) | inhibition at 2.43 µM (TNF-α) | inhibition at 2.43 µM (IL-6) | %Pre-G1 (HepG2 cells; control 2.70) | %G2-M (HepG2 cells; control 19.31) | %G0–G1 (HepG2 cells; control 39.81) | %S (HepG2 cells; control 40.88) |
| --- | --- | --- | --- | --- | --- | --- | --- | --- | --- | --- |
| Cc1ccc(NC(=O)c2ccc(NC(=O)CSc3nc4cc(C)ccc4o3)cc2)cc1 [Compound 8c, 4-(2-((5-Methylbenzo[d]oxazol-2-yl)thio)acetamido)-N-(p-tolyl)benzamide] | 6.12 ± 0.55 µM | 9.15 ± 0.85 µM | 8.16 ± 0.77 µM | 1.14 µM |  |  |  |  |  |  |
| C[C@@H]1C[C@H]2[C@@H]3CCC4=CC(=O)C=C[C@]4(C)[C@@]3(F)[C@@H](O)C[C@]2(C)[C@@]1(O)C(=O)CO [Dexamethasone, reference compound] |  |  |  |  | 82.5% | 93.2% |  |  |  |  |
| CC(=O)c1ccc(NC(=O)c2ccc(NC(=O)CSc3nc4cc(Cl)ccc4o3)cc2)cc1 [Compound 8g, N-(4-Acetylphenyl)-4-(2-((5-chlorobenzo[d]oxazol-2-yl)thio)acetamido) benzamide] | 10.4 ± 0.92 µM | 12.5 ± 1.1 µM | 8.44 ± 0.65 µM |  |  |  |  |  |  |  |
| Cc1ccc2oc(SCC(=O)Nc3ccc(C(=O)Nc4ccc([N+](=O)[O-])cc4)cc3)nc2c1 [Compound 8f, 4-(2-((5-Methylbenzo[d]oxazol-2-yl)thio)acetamido)-N-(4-nitrophenyl) benzamide] | 4 ± 0.33 µM | 4.97 ± 0.32 µM | 4.41 ± 0.35 µM | 0.204 µM |  |  |  |  |  |  |
| Cc1ccc(NC(=O)c2ccc(NC(=O)CSc3nc4cc(Cl)ccc4o3)cc2)cc1 [Compound 8b, 4-(2-((5-Chlorobenzo[d]oxazol-2-yl)thio)acetamido)-N-(p-tolyl)benzamide] | 11.6 ± 0.91 µM | 12.4 ± 0.92 µM | 10.4 ± 0.92 µM |  |  |  |  |  |  |  |
| Cc1ccc(NC(=O)c2ccc(NC(=O)CSc3nc4ccccc4o3)cc2)cc1 [Compound 8a, 4-(2-(Benzo[d]oxazol-2-ylthio)acetamido)-N-(p-tolyl)benzamide] | 10.1 ± 0.95 µM | 9.49 ± 0.75 µM | 10.4 ± 0.98 µM | 0.0579 µM |  |  |  |  |  |  |

The next lines start with results.

| IC50 [1] | IC50 (breast cancer (MCF-7)) | IC50 [2] | IC50 (VEGFR-2 kinase) | Compound | inhibition at 2.43 µM (TNF-α) | inhibition at 2.43 µM (IL-6) | %Pre-G1 (HepG2 cells; control 2.70) | %G2-M (HepG2 cells; control 19.31) | %G0–G1 (HepG2 cells; control 39.81) | %S (HepG2 cells; control 40.88) |
| --- | --- | --- | --- | --- | --- | --- | --- | --- | --- | --- |
| 14.2 ± 1.2 µM | 12.5 ± 1.05 µM | 11.2 ± 0.95 µM |  | O=C(CSc1nc2ccccc2o1)Nc1ccc(C(=O)NCCc2ccccc2)cc1 [Compound 8l, 4-(2-(Benzo[d]oxazol-2-ylthio)acetamido)-N-phenethylbenzamide] |  |  |  |  |  |  |
| 8.53 ± 0.77 µM | 10 ± 0.95 µM | 5.92 ± 0.47 µM | 0.317 µM | O=C(CSc1nc2ccccc2o1)Nc1ccc(C(=O)NCc2ccccc2)cc1 [Compound 8i, 4-(2-(Benzo[d]oxazol-2-ylthio)acetamido)-N-benzylbenzamide] |  |  |  |  |  |  |
| 18.2 ± 1.5 µM | 16.9 ± 1.5 µM | 14.2 ± 1.1 µM |  | O=C(CSc1nc2cc(Cl)ccc2o1)Nc1ccc(C(=O)NCc2ccccc2)cc1 [Compound 8j, N-Benzyl-4-(2-((5-chlorobenzo[d]oxazol-2-yl)thio)acetamido)benzamide] |  |  |  |  |  |  |
| 8.09 ± 0.71 µM | 8.37 ± 0.77 µM | 10.1 ± 0.93 µM | 0.653 µM | Cc1ccc2oc(SCC(=O)Nc3ccc(C(=O)NCc4ccccc4)cc3)nc2c1 [Compound 8k, N-Benzyl-4-(2-((5-methylbenzo[d]oxazol-2-yl)thio)acetamido)benzamide] |  |  |  |  |  |  |
| 2.79 ± 0.19 µM | 3.43 ± 0.15 µM | 2.43 ± 0.16 µM |  | O=C(CSc1nc2ccccc2o1)Nc1ccc(C(=O)Nc2ccc([N+](=O)[O-])cc2)cc1 [Compound 8d, 4-(2-(Benzo[d]oxazol-2-ylthio)acetamido)-N-(4-nitrophenyl)benzamide] | 90.5% | 92.2% | 70.23% | 19.1% | 31.1% | 49.8% |
| 3.29 ± 0.26 µM | 5.69 ± 0.44 µM | 4.51 ± 0.35 µM | 0.0741 µM | O=C(CSc1nc2cc(Cl)ccc2o1)Nc1ccc(C(=O)Nc2ccc([N+](=O)[O-])cc2)cc1 [Compound 8e, 4-(2-((5-Chlorobenzo[d]oxazol-2-yl)thio)acetamido)-N-(4-nitrophenyl) benzamide] |  |  |  |  |  |  |
| 5.3 ± 0.44 µM |  | 3.4 ± 0.25 µM |  | CNC(=O)c1cc(Oc2ccc(NC(=O)Nc3ccc(Cl)c(C(F)(F)F)c3)cc2)ccn1 [Sorafenib, reference compound] |  |  |  |  |  |  |
| 16.4 ± 1.3 µM | 25.8 ± 2.1 µM | 28.6 ± 2.1 µM |  | Cc1ccc2oc(SCC(=O)Nc3ccc(C(=O)NCCc4ccccc4)cc3)nc2c1 [Compound 8m, 4-(2-((5-Methylbenzo[d]oxazol-2-yl)thio)acetamido)-N-phenethylbenzamide] |  |  |  |  |  |  |
| 2.94 ± 0.19 µM | 3.53 ± 0.28 µM | 2.76 ± 0.18 µM | 0.114 µM | CC(=O)c1ccc(NC(=O)c2ccc(NC(=O)CSc3nc4cc(C)ccc4o3)cc2)cc1 [Compound 8h, N-(4-Acetylphenyl)-4-(2-((5-methylbenzo[d]oxazol-2-yl)thio)acetamido) benzamide] |  |  |  |  |  |  |
